Reference: PMC6349869, “The palladacycle complex AJ-5 induces apoptotic cell death while reducing autophagic flux in rhabdomyosarcoma cells” (Cell Death Discovery, 2019)

System: γH2AX, p-ATM, p-Chk2, p-p38, p21 in RH30 and RD cells
Assay: Western blotting and immunocytochemistry of DNA damage and stress pathway proteins
Type: cell-based, human
Protocol: Cells were lysed at 4 °C in whole-cell lysis buffer (0.125 M Tris-HCl pH 6.8, 4% SDS, 0.2% glycerol, 0.1% β-mercaptoethanol and a pinch of bromophenol blue) and boiled for 10 min. Proteins were resolved by SDS-PAGE (6–15% gels) and transferred to Hybond ECL membranes (Amersham, UK). The membranes were incubated with primary antibodies: rabbit polyclonal antibodies to phospho-histone H2A.X (Ser139) (#2577), phospho-chk2 (Thr68) (#221), phospho-p38 MAPK (Thr180/Tyr182) (#9211), cleaved caspase-3 (Asp175) (#9661), PARP (#9542), caspase-9 (#9502), LC3B (#2775), p38 MAPK (#9212), rabbit monoclonal antibody to cleaved caspase-7 (Asp198) (D6H1) (#8438), mouse monoclonal antibodies to phospho-ATM (Ser1981) (D6H9) (#5883), Cyclin B1 (V152) (#4135), Caspase-8 (1C12) (#9746), SQSTM1/p62 (D5L7G) (#88588) from Cell Signaling Technology (Massachusetts, USA); mouse monoclonal antibody to p53 (DO-1) (sc-126), rabbit polyclonal antibodies to p21 (C-19) (sc-397), cyclin A (H-432) (sc-751), cyclin B1 (H-433)(sc-752), PARP-1 (H-250) (sc-7150) from Santa Cruz Biotechnology (Texas, USA); rabbit polyclonal antibody to p38 MAP kinase (M0800) from Sigma Aldrich. After primary antibody incubation, membranes were incubated with goat anti-rabbit or goat anti-mouse HRP-conjugated secondary antibodies (Bio-Rad Laboratories, California, USA). Antibody reactive proteins were visualized by enhanced chemiluminescence using SuperSignal West Pico Chemiluminescent Substrate Kit (Thermo Fisher Scientific) or WesternBright ECL HRP Substrate Kit (Advansta, California, USA). Densitometry readings were obtained using ImageJ v1.50i[58] and protein expression levels were represented as a ratio of protein of interest/p38 loading control normalized to the vehicletreated control sample where appropriate. All blots are representative of at least two independent repeats.
Cells were plated on glass coverslips and treated with IC50 AJ-5 or vehicle. […] For quantification, mean fluorescence was measured from at least 20 fields of view per treatment condition and pooled from three independent repeats.

`CC(C)c1cccc(C(C)C)c1[N+]1=Cc2cccc[c]2[Pd-2]1([Cl])[P+](CC[P+](c1ccccc1)(c1ccccc1)[Pd-2]1([Cl])[c]2ccccc2C=[N+]1c1c(C(C)C)cccc1C(C)C)(c1ccccc1)c1ccccc1` (stereo not drawn) [AJ-5] was tested, and the γH2AX levels (0.1 µM or IC50, 24 and 48 h, western blotting) was “dose-dependent increase”, the p21 levels (IC50 concentrations, pronounced after 24 h) was “increased” and the “Levels of phosphorylated ATM, CHK2 and p38” value (western blotting) was “increased levels”.
